These results are taken from patent US7993928B2, “Detection of blood plasma Danshensu and Salvianolic acid B dissipating blood stasis botanical” (Shanghai Sundise, priority 2007, dated 2011).

For this series the following is noted: mammal plasma collected 0.5 hours after being drenched with strengthening body resistance and dissipating blood stasis botanical (FZHY); solid-phase extraction, UPLC/MS negative ion mode.

Procedure: Method of pretreating mammalian blood plasma sample: Collect mammal plasma containing drugs 0.5 hours after being administered the strengthening body resistance and dissipating blood stasis botanical, misce bene after adding 2-5 mol/L phosphoric acid, and the volume ratio between the blood plasma and phosphoric acid is 1:2-3, applying the blood plasma with drugs to small column of WATERS OASIS HLB (a type of chromatographic column) activated by methanol and water; after leaching with water and 80-100% methanol and eluting with 0.2-1% ammonia-methanol, drying and enriching the eluent under the condition of 25-30° C., and redissolving the eluent with mobile phase.
UPLC/MS detection method: The analysis conditions of the applied UPLC/MS method in this invention, UPLC condition: chromatographic column: ACQUITY HPLC BEH C18 (a type of chromatographic column), 2.1×100 mm, mobile phase A: Water-Acetonitrile-Formic acid 95:5:0.1 v/v/v, mobile phase B: Acetonitrile-Formic acid 100:0.1 v/v, eluting in accordance with the following gradient: […]

On to `O=C(O)[C@H](O)Cc1ccc(O)c(O)c1` [Danshensu], for which the “Detection in the blood plasma” value was “can be detected”.

In the case of `O=C(/C=C/c1ccc(O)c2c1[C@H](C(=O)O[C@H](Cc1ccc(O)c(O)c1)C(=O)O)[C@@H](c1ccc(O)c(O)c1)O2)O[C@H](Cc1ccc(O)c(O)c1)C(=O)O` [Salvianolic acid B], the “Detection in the blood plasma” value is given as “can be detected”.
